Measurements as given in ChEMBL document CHEMBL1150236, “Dragonamides C and D, linear lipopeptides from the marine cyanobacterium brown Lyngbya polychroa” (2008).
Square brackets hold non-standard residues; d marks the D form. Peptide text beside a SMILES is read from it. * marks the point of attachment. NMeV = CN[C@H](C(=O)O)C(C)C; X1 = C#CCCC/C(=C\C(=O)*)OC; X2 = C#CCCCC(=O)CC(=O)*

How the values were obtained:
Assay type in all cases: functional
[1] = system: U2OS; experiment: Cytotoxicity against human U2OS cells after 48 hrs by MTT assay
[2] = system: HT-29; experiment: Cytotoxicity against human HT29 cells after 48 hrs by MTT assay; conditions: HT-29, 48 h
[3] = system: IMR-32; experiment: Cytotoxicity against human IMR32 cells after 48 hrs by MTT assay; conditions: IMR-32, 48 h

| SMILES | GI50 [1] | GI50 [2] | GI50 [3] |
| --- | --- | --- | --- |
| C#CCCC/C(=C\C(=O)N(C)[C@H](C(=O)N(C)[C@H](C(=O)N(C)[C@H](C(=O)N(C)[C@H](C(N)=O)C(C)C)C(C)C)C(C)C)C(C)C)OC [DRAGONAMIDE C] (X1-[NMeV][NMeV][NMeV][NMeV]-NH2) | 56 µM | 22 µM | 49 µM |
| C#CCCCC(=O)CC(=O)N(C)[C@H](C(=O)N(C)[C@H](C(=O)N(C)[C@H](C(=O)N(C)[C@H](C(N)=O)C(C)C)C(C)C)C(C)C)C(C)C [DRAGONAMIDE D] (X2-[NMeV][NMeV][NMeV][NMeV]-NH2) | 59 µM | 32 µM | 51 µM |
